Results reported in patent US20070149483A1, “Methods and compounds for modulating triglyceride and vldl secretion” (priority 2003, published 2007).
Marks after values point to notes of the source that are not given here.

Experiments:
Format in all cases: cell-based, rat
[1] = tested on: McA-RH7777 cells stably expressing human apoB100; experiment: Tandem mass spectrometry of PC and PE in membranes of subcellular organelles; conditions: for PC content, Total / PC content, membranes of ER / PC content, membranes of cis/medial Golgi / PC content, membranes of distal Golgi / PE content, Total / PE content, membranes of ER / PE content, membranes of cis/medial Golgi / PE content, membranes of distal Golgi: control cells set as 100
Excerpt: Subcellular Fractionation—Three subcellular fractions (i.e., ER, fractions 1 through 3; cis/medial Golgi, fractions 4 through 8; distal Golgi, fractions 9 through 15) were obtained from the cell lysates using Nycodenz gradient centrifugation (Hammond and Helenius, 1994, J. Cell Biol. 126, 41-52; Rickwood et al., 1982, Anal. Biochem. 123, 23-31) of the post-nuclear supernatant as previously described (Tran et al., 2002). […] The membrane and lumen preparations from ER (Nycodenz fractions 1 through 3), cis/medial Golgi (fractions 4 through 8), and distal Golgi (fractions 9 through 15) were derived from cells pooled from eight 100-mm dishes. Lipids were extracted from the samples with chloroform/methanol/acetic acid/saturated NaCl/H2O (4:2:0.1:1:2, by volume) in the presence of 230 pmol dimirystoyl (14:0-14:0) PC and 110 pmol dipalmitoyl (16:0-16:0) PE as internal standards. Aliquots of lipid extracts were applied to tandem mass spectrometry, and the molecular species (i.e. fatty acid composition) of PC and PE was determined by daughter ion analysis in the negative ion mode as previously described (Tran et al., 2002; DeLong et al., 1999, J. Biol. Chem. 274, 29683-29688). The integrated area under the peak of each molecular species was quantified by comparing with those of internal standards.

[2] = tested on: McA-RH7777 cells stably expressing human apoB100; experiment: Pulse-chase (1 h pulse, up to 3 h chase) of apoB100 and apoA-I secretion efficiency
Experimental: The cells were then incubated with chase medium for 15, 30 and 45 min. At the end of each chase time, the medium was collected and subjected to cumulative rate flotation centrifugation (Wang et al., 1999) to resolve apoB100-VLDL1 (Sf>100) and apoB100-VLDL2 (Sf 20-100) from other lipoproteins (i.e. IDL, LDL and HDL). The ^35S-apoB100 in each fraction was recovered by immunoprecipitation. Also, at the end of each chase time, the radiolabeled cells were harvested in 2 ml of ice-cold homogenization buffer (10 mM Tris-HCl, pH 7.4, 250 mM sucrose, 5 mM EDTA, and serine/cysteine protease inhibitor mixture), mixed with two 100-mm dishes of unlabeled cells, homogenized by passing ten times through a ball-bearing homogenizer, and subjected to subcellular fractionation and carbonate-treatment as described below.
Oleate and EPA were present in both pulse and chase media. The [^35S]-apoB100 from total cell lysates (FIG. 2A) or conditioned media (FIG. 2B) was immunoprecipitated, resolved by SDS-PAGE, and visualized by fluorography. Radioactivity associated with [^35S]-apoB100 was quantified. As shown in the top panels of FIG. 2A to 2B, the data is expressed as absolute amount of radioactivity associated with [^35S]-apoB100 at the end of 1-h pulse. As shown in the […] panels of FIG. 2A to 2B, the data is expressed as percent of the initial counts associated with ^35S-apoB100 at the end of 1-h pulse. […] The experiments were repeated and similar results were obtained.
It has been shown previously that VLDL, particles carry >80% of total TG but <10% of total apoB100 secreted from oleate-treated McA-RH777 cells (Wang et al., 1999, J. Biol. Chem. 274: 27793-27800). Thus the possibility was considered that the above pulse (30-min)-chase(60 min) experiment might fail to detect decreased secretion and increased post-translational degradation of apoB100 because n-3 fatty acid treatment was reported to selectively decrease apoB100 in VLDL fractions (Fisher and Ginsberg, 2002, J. Biol. Chem. 277: 17377-17380). In the next set of experiments, the pulse-labelling period was extended to 1 h to maximize [^35S]-labelling of apoB100 and to allow examination of potential posttranslational degradation. […] The high labelling of apoB100 at the end of 1-h pulse may reflect increased intracellular accumulation of newly synthesized apoB100 and/or impaired secretion. […] The secretion efficiency, which measures the proportion of total metabolically labelled [^35S]-apoB100 secreted at the end of chase was decreased from 60% to 40% in EPA-treated cells compared to OA-treated cells (FIG. 2B, bottom). […]

[3] = tested on: McA-RH7777 cells stably expressing human apoB100; experiment: Synthesis and secretion of [3H]glycerol-labelled TG and PC
Experimental: (§1) Cell Culture and Fatty Acid Treatments—Transfected McA-RH7777 cells stably expressing human apoB100 (McLeod et al., 1994, J. Biol. Chem. 269, 2852-2862) were cultured in Dulbecco's modified Eagle's medium (DMEM) containing 10% fetal bovine serum (FBS), 10% horse serum and 200 μg/ml G418. Routinely, the cells were incubated with 0.4 mM fatty acids for 16-18 h in the presence of 20% FBS prior to experiments.
Other Assays—The TG transfer activity of MTP was determined according to published method (Wetterau et al., 1992, Science 258, 999-1001) with modifications (Wang et al., 1999). The phosphatidate phosphohydrolase activity was determined by an established method (Jamal et al., 1991, J. Biol. Chem. 266, 2988-2996). Lipid extraction and analysis by TLC was performed as previously described (Tran et al., 2000). Protein was determined using the BCA™ protein assay kit (Pierce).

[4] = tested on: McA-RH7777 cells stably expressing human apoB100; experiment: Competitive ELISA of apoB100 protein in medium; conditions: after 16-h incubation, n=3
Experimental: as §1
Competitive Enzyme Linked Immunosorbent Assay (ELISA)—The ELISA plates were coated with human LDL (1 mg/ml in PBS, 16 h, 4° C.), blocked with skim milk (5% in PBS, 2 h, 37° C.), and washed three times with PBS containing 0.02% Tween-20. The plates were incubated with apoB monoclonal antibody 1D1 (1:64,000, 16 h, 4° C.) in the presence of serial diluted concentrations of human LDL or medium samples. The plates were washed and incubated with horseradish peroxidase-linked anti-mouse IgG antibody (1:10,000, 2 h, 37° C.), followed by addition of the liquid substrate system for ELISA (3,3′,5,5′-tetramethyl-benzidine). The reaction was quantified colorimetrically by spectrophotometer reading at OD665.

[5] = end of 2-h labelling with [^3H]glycerol, means ± SD of triplicate

**Q.** With `CC/C=C\C/C=C\C/C=C\C/C=C\C/C=C\CCCC(=O)O` [EPA, eicosapentaenoic acid] as the compound, how does the “PC content, Total” value [1] read?
**A.** (92)* % of control

**Q.** What about the “PC content, membranes of ER” value [1] of the same compound?
**A.** (108)* % of control

**Q.** What about the “PC content, membranes of cis/medial Golgi” value [1] of the same compound?
**A.** (70)* % of control

**Q.** And the “PC content, membranes of distal Golgi” value [1]?
**A.** (94)* % of control

**Q.** And the “PE content, Total” value [1]?
**A.** (185)* % of control

**Q.** And the “PE content, membranes of ER” value [1]?
**A.** (216) % of control

**Q.** What about the “PE content, membranes of cis/medial Golgi” value [1] of the same compound?
**A.** (127) % of control

**Q.** What about the “PE content, membranes of distal Golgi” value [1] of the same compound?
**A.** (270)* % of control

**Q.** What about the “increase in PE mass in the ER” value ([1]; vs untreated control) of the same compound?
**A.** 116%

**Q.** What about the “increase in PE mass in the distal Golgi” value ([1]; vs untreated control) of the same compound?
**A.** 170%

**Q.** What about the “increase in total PE mass” value ([1]; vs untreated control) of the same compound?
**A.** 85%

**Q.** What about the “[^35S] incorporated into apoB100 at the end of 1-h pulse, greater than in oleate-treated cells” value [2] of the same compound?
**A.** ~40%

**Q.** What about the “amount of [^35S] incorporated into apoB100 at the end of 1-h pulse” value [2] of the same compound?
**A.** 9.43×10^4 cpm/dish

**Q.** What about the “secretion efficiency (proportion of total metabolically labelled [^35S]-apoB100 secreted at the end of chase)” value ([2]; 3-h chase) of the same compound?
**A.** 40%

**Q.** What about the “[^3H]PC Cell” value [3, 5] of the same compound?
**A.** 15.80 ± 0.44 cpm × 10^−3/dish

**Q.** What about the “[^3H]PC Medium” value [3, 5] of the same compound?
**A.** 3.86 ± 0.57 cpm × 10^−3/dish

**Q.** And the “[^3H]TG Cell” value [3, 5]?
**A.** 40.84 ± 0.70^b cpm × 10^−3/dish

**Q.** And the “[^3H]TG Medium” value [3, 5]?
**A.** 7.18 ± 0.96^b cpm × 10^−3/dish

**Q.** And the “reduction in secretion of [^3H]glycerol-labelled TG” value ([3]; vs oleate-treated cells)?
**A.** 50%

**Q.** What about the “amount of apoB100 protein accumulated in the medium” value [4] of the same compound?
**A.** 2.5 ± 0.43 µg/mL

**Q.** With `CCCCCCCC/C=C\CCCCCCCC(=O)O` [Oleate, oleic acid] as the compound, how does the “PC content, Total” value [1] read?
**A.** (156) % of control

**Q.** And the “PC content, membranes of ER” value [1]?
**A.** (182) % of control

**Q.** What about the “PC content, membranes of cis/medial Golgi” value [1] of the same compound?
**A.** (107) % of control

**Q.** What about the “PC content, membranes of distal Golgi” value [1] of the same compound?
**A.** (173) % of control

**Q.** And the “PE content, Total” value [1]?
**A.** (129) % of control

**Q.** And the “PE content, membranes of ER” value [1]?
**A.** (172) % of control

**Q.** What about the “PE content, membranes of cis/medial Golgi” value [1] of the same compound?
**A.** (112) % of control

**Q.** And the “PE content, membranes of distal Golgi” value [1]?
**A.** (106) % of control

**Q.** And the “increase in PC mass in the ER” value ([1]; vs untreated control)?
**A.** 82%

**Q.** And the “increase in PC mass in the distal Golgi” value ([1]; vs untreated control)?
**A.** 73%

**Q.** And the “increase in PE mass in the ER” value ([1]; vs untreated control)?
**A.** 72%

**Q.** And the “increase in total PC mass associated with intracellular microsomes” value ([1]; vs untreated control)?
**A.** 56%

**Q.** And the “increase in total PE mass” value ([1]; vs untreated control)?
**A.** 29%

**Q.** What about the “amount of [^35S] incorporated into apoB100 at the end of 1-h pulse” value [2] of the same compound?
**A.** 6.40×10^4 cpm/dish

**Q.** And the “[^3H]PC Cell” value [3, 5]?
**A.** 15.00 ± 0.23 cpm × 10^−3/dish

**Q.** What about the “[^3H]PC Medium” value [3, 5] of the same compound?
**A.** 4.10 ± 0.12 cpm × 10^−3/dish

**Q.** And the “[^3H]TG Medium” value [3, 5]?
**A.** 12.87 ± 1.59 cpm × 10^−3/dish

**Q.** What about the “amount of apoB100 protein accumulated in the medium” value [4] of the same compound?
**A.** 2.74 ± 0.48 µg/mL
